{"source": "patent US11105799B2", "about": "“Biomarkers of therapeutic responsiveness” (Meso Scale Technologies, LLC., priority 2009, dated 2021)", "key": {"human 786-0 RCC cells [1]": {"system": "human 786-0 RCC cells", "experiment": "Multiplex immunoassay of biomarker levels in RCC xenograft tissue extracts from mice", "assay_type": "in vivo", "conditions": "for AMPKa1 Total marker concentration +/- SD / AMPKa1 p174 marker concentration +/- SD / AMPKa1 p285 marker concentration +/- SD / Gsk3b Phospho marker concentration +/- SD / Gsk3b Total marker concentration +/- SD / Mek1/2 Phospho marker concentration +/- SD / Mek1/2 Total marker concentration +/- SD: 1 ug protein/well; for STAT3 Phospho marker concentration +/- SD: 2 ug protein/well; for Hif1a Total marker concentration +/- SD: 4 ug protein/well", "protocol": "A panel of biomarkers was measured in RCC xenograft tissue extracts from mice. The mice were implanted with human 786-0 RCC cells and the cells were allowed to grow until a tumor of approximately 12 mm diameter was formed. The “Set A” group of mice received no drug treatment prior to removal of the xenograft tissue.\nMultiplex immunoassay kits were used for detection of total and/or phosphorylated biomarkers (supplied by Meso Scale Diagnostics, LLC, Gaithersburg, Md.). Levels of each biomarker were determined by calibration of the assays with were either purified calibrator proteins or using control cell lysates from appropriately treated cultured cell lines (e.g., cells subjected to conditions known to induce or reduce levels of a specific biomarker). Calibration curves were derived by testing serial dilutions of the calibrator lysates or purified proteins. Levels of biomarkers in test samples were back-calculated from the calibration curves and were expressed in terms of wt. of protein per weight of tissue extract (for purified calibrators) or in terms of weight of crude control lysate protein per well (for lysate calibrators). Titrations of tumor extracts were carried out to determine the linearity of the assay response to sample dilution and to select the sample dilution that would be appropriate to use for each assay panel.\nIn general, the assay format was as follows, with minor alterations for specific assay panels as indicated in the assay protocols provided with each assay kit (supplied by Meso Scale Diagnostics, LLC): (1) block MSD MULTI-SPOT® plate for 1 hour with appropriate MSD® blocking solution and wash; (2) add 25 μl assay diluent to each well, if specified; (3) add 25 μl calibrator, or sample (diluted as appropriate) to each well; (4) incubate with shaking for 1-3 hours (time as specified) and wash the well; (5) add 25 μl labeled detection antibody solution to each well; (6) incubate with shaking for 1-2 hours (time as specified) and wash the well; (7) add 150 μl MSD read buffer to each well; (8) read plate immediately on MSD SI6000 Reader (supplied by Meso Scale Diagnostics, LLC)."}, "GSK30": {"system": "GSK30", "conditions": "melanoma cells; cited from earlier work"}, "tumor vasculature": {"system": "tumor vasculature", "conditions": "xenograft studies; cited from earlier work"}, "human 786-0 RCC cells [2]": {"system": "human 786-0 RCC cells", "experiment": "Tumor size of human 786-0 RCC xenografts in mice treated with sorafenib", "assay_type": "in vivo", "conditions": "tumor approximately 12 mm diameter at start", "protocol": "A panel of biomarkers was measured in RCC xenograft tissue extracts from mice. The mice were implanted with human 786-0 RCC cells and the cells were allowed to grow until a tumor of approximately 12 mm diameter was formed. The “Set A” group of mice received no drug treatment prior to removal of the xenograft tissue. The other two groups of mice—“Set C” and “Set D”—were treated with sorafenib prior to removal of the xenograft tissue. […] The “Set D” developed resistance to the drug and the tumor size increased to 16 mm in diameter during treatment."}, "[3]": {"conditions": "Tumor Group C (treated), sensitive to sorafenib, 0.5 ug total protein/well"}, "[4]": {"conditions": "Tumor Group C (treated), sensitive to sorafenib"}, "[5]": {"conditions": "Tumor Group C (treated), sensitive to sorafenib, 2.5 ug protein/well"}, "[6]": {"conditions": "Tumor Group D (resistant), sorafenib treated, 0.5 ug total protein/well"}, "[7]": {"conditions": "Tumor Group D (resistant), sorafenib treated"}, "[8]": {"conditions": "Tumor Group D (resistant), sorafenib treated, 2.5 ug protein/well"}}}
{"smiles": "CNC(=O)c1cc(Oc2ccc(NC(=O)Nc3ccc(Cl)c(C(F)(F)F)c3)cc2)ccn1", "note": "[sorafenib]", "values": [{"measurement": "Akt Phospho marker concentration +/- SD", "setting": "human 786-0 RCC cells [1]; [3]", "result": "348 +/− 85 ng calibrator lysate protein/w"}, {"measurement": "Akt Total marker concentration +/- SD", "setting": "human 786-0 RCC cells [1]; [3]", "result": "142 +/− 43 ng calibrator lysate protein/w"}, {"measurement": "Erk1/2 Phospho marker concentration +/- SD", "setting": "human 786-0 RCC cells [1]; [3]", "result": "102 +/− 45 ng calibrator lysate protein/w"}, {"measurement": "Met Phospho marker concentration +/- SD", "setting": "human 786-0 RCC cells [1]; [3]", "result": "34 +/− 7 ng calibrator lysate protein/w"}, {"measurement": "Met Total marker concentration +/- SD", "setting": "human 786-0 RCC cells [1]; [3]", "result": "850 +/− 375 ng calibrator lysate protein/w"}, {"measurement": "p21 Total marker concentration +/- SD", "setting": "human 786-0 RCC cells [1]; [3]", "result": "1.1 +/− 0.3 pg/ug tumor protein"}, {"measurement": "p38 Total marker concentration +/- SD", "setting": "human 786-0 RCC cells [1]; [3]", "result": "449 +/− 266 ng calibrator lysate protein/w"}, {"measurement": "AMPKa1 Total marker concentration +/- SD", "setting": "human 786-0 RCC cells [1]; [4]", "result": "29 +/− 13 pg/ug tumor protein"}, {"measurement": "AMPKa1 p174 marker concentration +/- SD", "setting": "human 786-0 RCC cells [1]; [4]", "result": "7.3 +/− 4.4 pg/ug tumor protein"}, {"measurement": "AMPKa1 p285 marker concentration +/- SD", "setting": "human 786-0 RCC cells [1]; [4]", "result": "29 +/− 15 pg/ug tumor protein"}, {"measurement": "Gsk3b Phospho marker concentration +/- SD", "setting": "human 786-0 RCC cells [1]; [4]", "result": "1188 +/− 446 ng calibrator lysate protein/w"}, {"measurement": "Gsk3b Total marker concentration +/- SD", "setting": "human 786-0 RCC cells [1]; [4]", "result": "3771 +/− 1491 ng calibrator lysate protein/w"}, {"measurement": "Mek1/2 Phospho marker concentration +/- SD", "setting": "human 786-0 RCC cells [1]; [4]", "result": "116 +/− 21 ng calibrator lysate protein/w"}, {"measurement": "Mek1/2 Total marker concentration +/- SD", "setting": "human 786-0 RCC cells [1]; [4]", "result": "350 +/− 90 ng calibrator lysate protein/w"}, {"measurement": "STAT3 Phospho marker concentration +/- SD", "setting": "human 786-0 RCC cells [1]; [4]", "result": "65 +/− 16 ng calibrator lysate protein/w"}, {"measurement": "Jnk Phospho marker concentration +/- SD", "setting": "human 786-0 RCC cells [1]; [5]", "result": "74 +/− 29 ng calibrator lysate protein/w"}, {"measurement": "Jnk Total marker concentration +/- SD", "setting": "human 786-0 RCC cells [1]; [5]", "result": "983 +/− 356 ng calibrator lysate protein/w"}, {"measurement": "PlGF Total marker concentration +/- SD", "setting": "human 786-0 RCC cells [1]; [5]", "result": "0.083 +/− 0.031 pg/ug tumor protein"}, {"measurement": "VEGFR-1 Total marker concentration +/- SD", "setting": "human 786-0 RCC cells [1]; [5]", "result": "0.26 +/− 0.08 pg/ug tumor protein"}, {"measurement": "bFGF Total marker concentration +/- SD", "setting": "human 786-0 RCC cells [1]; [5]", "result": "2.1 +/− 0.6 pg/ug tumor protein"}, {"measurement": "Hif1a Total marker concentration +/- SD", "setting": "human 786-0 RCC cells [1]; [4]", "result": "19 +/− 3 ng calibrator lysate protein/w"}, {"measurement": "Akt Phospho marker concentration +/- SD", "setting": "human 786-0 RCC cells [1]; [6]", "result": "354 +/− 84 ng calibrator lysate protein/w"}, {"measurement": "Akt Total marker concentration +/- SD", "setting": "human 786-0 RCC cells [1]; [6]", "result": "93 +/− 25 ng calibrator lysate protein/w"}, {"measurement": "Erk1/2 Phospho marker concentration +/- SD", "setting": "human 786-0 RCC cells [1]; [6]", "result": "206 +/− 103 ng calibrator lysate protein/w"}, {"measurement": "Erk1/2 Total marker concentration +/- SD", "setting": "human 786-0 RCC cells [1]; [6]", "result": "486 +/− 306 ng calibrator lysate protein/w"}, {"measurement": "Met Phospho marker concentration +/- SD", "setting": "human 786-0 RCC cells [1]; [6]", "result": "41 +/− 6 ng calibrator lysate protein/w"}, {"measurement": "Met Total marker concentration +/- SD", "setting": "human 786-0 RCC cells [1]; [6]", "result": "595 +/− 137 ng calibrator lysate protein/w"}, {"measurement": "p21 Total marker concentration +/- SD", "setting": "human 786-0 RCC cells [1]; [6]", "result": "2.2 +/− 0.9 pg/ug tumor protein"}, {"measurement": "p38 Total marker concentration +/- SD", "setting": "human 786-0 RCC cells [1]; [6]", "result": "428 +/− 227 ng calibrator lysate protein/w"}, {"measurement": "AMPKa1 Total marker concentration +/- SD", "setting": "human 786-0 RCC cells [1]; [7]", "result": "26 +/− 10 pg/ug tumor protein"}, {"measurement": "AMPKa1 p174 marker concentration +/- SD", "setting": "human 786-0 RCC cells [1]; [7]", "result": "3.8 +/− 0.9 pg/ug tumor protein"}, {"measurement": "AMPKa1 p285 marker concentration +/- SD", "setting": "human 786-0 RCC cells [1]; [7]", "result": "19 +/− 5 pg/ug tumor protein"}, {"measurement": "Gsk3b Phospho marker concentration +/- SD", "setting": "human 786-0 RCC cells [1]; [7]", "result": "1474 +/− 294 ng calibrator lysate protein/w"}, {"measurement": "Gsk3b Total marker concentration +/- SD", "setting": "human 786-0 RCC cells [1]; [7]", "result": "3829 +/− 1058 ng calibrator lysate protein/w"}, {"measurement": "Mek1/2 Phospho marker concentration +/- SD", "setting": "human 786-0 RCC cells [1]; [7]", "result": "113 +/− 24 ng calibrator lysate protein/w"}, {"measurement": "Mek1/2 Total marker concentration +/- SD", "setting": "human 786-0 RCC cells [1]; [7]", "result": "359 +/− 103 ng calibrator lysate protein/w"}, {"measurement": "STAT3 Phospho marker concentration +/- SD", "setting": "human 786-0 RCC cells [1]; [7]", "result": "41 +/− 10 ng calibrator lysate protein/w"}, {"measurement": "Jnk Phospho marker concentration +/- SD", "setting": "human 786-0 RCC cells [1]; [8]", "result": "110 +/− 22 ng calibrator lysate protein/w"}, {"measurement": "Jnk Total marker concentration +/- SD", "setting": "human 786-0 RCC cells [1]; [8]", "result": "878 +/− 231 ng calibrator lysate protein/w"}, {"measurement": "PlGF Total marker concentration +/- SD", "setting": "human 786-0 RCC cells [1]; [8]", "result": "0.144 +/− 0.073 pg/ug tumor protein"}, {"measurement": "VEGF Total marker concentration +/- SD", "setting": "human 786-0 RCC cells [1]; [8]", "result": "26 +/− 15 pg/ug tumor protein"}, {"measurement": "VEGFR-1 Total marker concentration +/- SD", "setting": "human 786-0 RCC cells [1]; [8]", "result": "0.39 +/− 0.14 pg/ug tumor protein"}, {"measurement": "bFGF Total marker concentration +/- SD", "setting": "human 786-0 RCC cells [1]; [8]", "result": "2.6 +/− 1.3 pg/ug tumor protein"}, {"measurement": "Hif1a Total marker concentration +/- SD", "setting": "human 786-0 RCC cells [1]; [7]", "result": "14 +/− 3 ng calibrator lysate protein/w"}, {"measurement": "effect on GSK3β activity", "setting": "GSK30", "result": "activates GSK30"}, {"measurement": "effect on tumor vasculature", "setting": "tumor vasculature", "result": "reduction in tumor vasculature"}, {"measurement": "tumor size", "setting": "human 786-0 RCC cells [2]; Set C, sensitive", "result": "tumor size decreased"}, {"measurement": "tumor size (diameter) during treatment", "setting": "human 786-0 RCC cells [2]; Set D, developed resistance", "result": 16, "unit": "mm"}]}
